Source: PubChem BioAssay (NCI)
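Each compound was tested at five concentrations against cells in 96-well plates for 48 hours. TGI denotes the concentration required for complete inhibition of growth.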

What was measured:
Assay in all cases: NCI-60 cell line screen, 48 h
MALME-3M melanoma = system: MALME-3M melanoma
SF-268 CNS = system: SF-268 CNS
SNB-19 CNS = system: SNB-19 CNS
HT29 colon = system: HT29 colon
U251 CNS = system: U251 CNS
A549 NSCLC = system: A549 NSCLC
SNB-75 CNS = system: SNB-75 CNS
UACC-62 melanoma = system: UACC-62 melanoma
786-0 renal = system: 786-0 renal
PC-3 prostate = system: PC-3 prostate
ACHN renal = system: ACHN renal
SR leukemia = system: SR leukemia
UACC-257 melanoma = system: UACC-257 melanoma
LOX IMVI melanoma = system: LOX IMVI melanoma
MOLT-4 leukemia = system: MOLT-4 leukemia
HCC-2998 colon = system: HCC-2998 colon
SW-620 colon = system: SW-620 colon
OVCAR-8 ovarian = system: OVCAR-8 ovarian
EKVX NSCLC = system: EKVX NSCLC
NCI-H460 lung = system: NCI-H460 lung
SF-539 CNS = system: SF-539 CNS
T-47D breast = system: T-47D breast
IGROV1 ovarian = system: IGROV1 ovarian
NCI-H226 lung = system: NCI-H226 lung
SK-MEL-2 melanoma = system: SK-MEL-2 melanoma
MDA-N = system: MDA-N
HL-60(TB) leukemia = system: HL-60(TB) leukemia
MCF7 breast = system: MCF7 breast
NCI-H23 lung = system: NCI-H23 lung
MDA-MB-435 = system: MDA-MB-435
NCI/ADR-RES ovarian = system: NCI/ADR-RES ovarian
UO-31 renal = system: UO-31 renal
HOP-92 NSCLC = system: HOP-92 NSCLC
HCT-116 colon = system: HCT-116 colon
A498 renal = system: A498 renal
SK-MEL-28 melanoma = system: SK-MEL-28 melanoma
HS 578T breast = system: HS 578T breast
K-562 leukemia = system: K-562 leukemia
NCI-H522 lung = system: NCI-H522 lung
SF-295 CNS = system: SF-295 CNS
BT-549 breast = system: BT-549 breast
CCRF-CEM leukemia = system: CCRF-CEM leukemia
MDA-MB-231 breast = system: MDA-MB-231 breast
SN12C renal = system: SN12C renal
DU-145 prostate = system: DU-145 prostate
CAKI-1 renal = system: CAKI-1 renal
COLO 205 colon = system: COLO 205 colon
M14 melanoma = system: M14 melanoma
OVCAR-4 ovarian = system: OVCAR-4 ovarian
HCT-15 colon = system: HCT-15 colon
SK-OV-3 ovarian = system: SK-OV-3 ovarian
OVCAR-5 ovarian = system: OVCAR-5 ovarian
KM12 colon = system: KM12 colon
TK-10 renal = system: TK-10 renal
SK-MEL-5 melanoma = system: SK-MEL-5 melanoma
RPMI-8226 leukemia = system: RPMI-8226 leukemia
OVCAR-3 ovarian = system: OVCAR-3 ovarian
RXF 393 renal = system: RXF 393 renal
HOP-62 NSCLC = system: HOP-62 NSCLC

Measured: TGI

C=C1C(=O)OC2CC3(C)CCCC(C)C3=CC12 (stereo not given)
14.1 µM: MDA-MB-435
23.1 µM: SF-268 CNS
56.1 µM: SK-OV-3 ovarian
3.97 µM: NCI-H522 lung
14.7 µM: DU-145 prostate
26.9 µM: MDA-MB-231 breast
16.2 µM: UACC-62 melanoma | HCC-2998 colon
4.42 µM: LOX IMVI melanoma
20.2 µM: OVCAR-4 ovarian
11.4 µM: MDA-N
9.27 µM: CAKI-1 renal
9.04 µM: MOLT-4 leukemia
12.2 µM: SK-MEL-28 melanoma | SN12C renal
5.28 µM: MCF7 breast
6.13 µM: SW-620 colon
3.79 µM: SF-539 CNS
14.2 µM: HT29 colon
56.7 µM: NCI/ADR-RES ovarian
15.5 µM: HCT-116 colon
11.2 µM: SNB-75 CNS
18.1 µM: UACC-257 melanoma
28.5 µM: SK-MEL-2 melanoma
13.7 µM: NCI-H460 lung
4.6 µM: SK-MEL-5 melanoma
39.2 µM: PC-3 prostate
2.59 µM: HL-60(TB) leukemia
25.8 µM: SNB-19 CNS
22.4 µM: IGROV1 ovarian
7.04 µM: SR leukemia
23.4 µM: OVCAR-5 ovarian
16.1 µM: M14 melanoma
11.6 µM: 786-0 renal
18.7 µM: A498 renal
25.1 µM: KM12 colon
19.9 µM: NCI-H23 lung
30.3 µM: NCI-H226 lung
5.08 µM: HCT-15 colon
12.5 µM: UO-31 renal
6.61 µM: K-562 leukemia
11 µM: T-47D breast
26.3 µM: SF-295 CNS
22.2 µM: U251 CNS
26.8 µM: A549 NSCLC
36.6 µM: HS 578T breast
37.3 µM: OVCAR-8 ovarian
2.56 µM: COLO 205 colon
4.53 µM: CCRF-CEM leukemia
16.7 µM: MALME-3M melanoma
18.5 µM: BT-549 breast
10.1 µM: TK-10 renal
10.3 µM: HOP-92 NSCLC
10.4 µM: ACHN renal
24.3 µM: EKVX NSCLC

COc1ncnc2c1cnn2Cc1cn(CCCCO)nn1
not listed: SNB-75 CNS | HL-60(TB) leukemia
> 100 µM: all other assays above

O=[N+]([O-])c1nccn1CCCNCCCn1ccnc1[N+](=O)[O-]
not listed: SNB-19 CNS | HCC-2998 colon
> 100 µM: all other assays above

CC(CCCC1SCC2NC(=O)NC21)C(=O)O (stereo not given)
not listed: UACC-257 melanoma | HCC-2998 colon | CCRF-CEM leukemia
> 100 µM: all other assays above
